From patent US20110098296A1, “Thiazole And Oxazole Kinase Inhibitors” (priority 2007, published 2011)
Structures can show the parent of a compound that is named as a salt.

How the values were obtained:
[1] = biological target: T1, EGFR (Homo sapiens, UniProt P00533); test: EGFR substrate phosphorylation assay (HTRF); type: biochemical; conditions: Method (A): Enzyme Mix incubated with compound at 20° C. for 1 hr, reaction started by adding Substrate Mix
T1 construct: made in house; host or cells: baculovirus expression system
T1 sequence (P00533 25-1210): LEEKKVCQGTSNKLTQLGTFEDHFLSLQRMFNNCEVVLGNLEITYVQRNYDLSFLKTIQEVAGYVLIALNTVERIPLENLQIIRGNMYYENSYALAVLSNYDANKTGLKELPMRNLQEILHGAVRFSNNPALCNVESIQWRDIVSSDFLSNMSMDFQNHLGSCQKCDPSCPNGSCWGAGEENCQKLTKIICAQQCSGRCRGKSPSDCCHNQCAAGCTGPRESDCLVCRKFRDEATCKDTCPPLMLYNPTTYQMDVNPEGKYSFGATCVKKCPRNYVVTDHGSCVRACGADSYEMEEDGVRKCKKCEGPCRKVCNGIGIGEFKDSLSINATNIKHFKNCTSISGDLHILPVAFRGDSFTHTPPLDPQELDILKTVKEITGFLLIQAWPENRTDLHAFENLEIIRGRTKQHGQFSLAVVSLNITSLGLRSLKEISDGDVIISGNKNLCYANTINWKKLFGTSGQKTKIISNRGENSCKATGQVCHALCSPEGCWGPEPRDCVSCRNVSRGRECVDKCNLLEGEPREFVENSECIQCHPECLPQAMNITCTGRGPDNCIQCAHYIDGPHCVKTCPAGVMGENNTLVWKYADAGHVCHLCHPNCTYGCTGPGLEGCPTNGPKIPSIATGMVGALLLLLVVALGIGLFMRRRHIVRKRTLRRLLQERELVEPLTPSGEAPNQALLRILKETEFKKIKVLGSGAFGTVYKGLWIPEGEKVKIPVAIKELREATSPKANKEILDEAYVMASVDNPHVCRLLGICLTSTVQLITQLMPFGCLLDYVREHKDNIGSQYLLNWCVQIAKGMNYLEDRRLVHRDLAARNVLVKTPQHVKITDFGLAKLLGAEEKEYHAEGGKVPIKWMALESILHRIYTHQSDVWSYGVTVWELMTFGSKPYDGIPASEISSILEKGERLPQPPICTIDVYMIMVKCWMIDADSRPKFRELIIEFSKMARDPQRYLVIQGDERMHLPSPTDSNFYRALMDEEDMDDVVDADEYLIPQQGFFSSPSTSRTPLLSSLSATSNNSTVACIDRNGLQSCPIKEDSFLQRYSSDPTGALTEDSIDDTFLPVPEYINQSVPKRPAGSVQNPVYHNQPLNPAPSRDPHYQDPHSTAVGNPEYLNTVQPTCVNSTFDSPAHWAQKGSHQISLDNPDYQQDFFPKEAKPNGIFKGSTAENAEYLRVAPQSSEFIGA
In short: (§1)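 Baculovirus-expressed kinase (0.8 nM EGFR or 10 nM ErbB2 in enzyme mix) with Peptide C 0.8 μM and ATP 20 μM (substrate-mix levels), MOPS pH 7.5, MnCl2; 90 min, 20 °C, HTRF anti-phosphotyrosine. Method A adds 1 h enzyme–compound preincubation; B none. pIC50, final compound 0.00027–47.6 μM.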

[2] = biological target: T2, ErbB2 (Homo sapiens, UniProt P04626); test: ErbB-2 substrate phosphorylation assay (HTRF); type: biochemical; conditions: Method (A): Enzyme Mix incubated with compound at 20° C. for 1 hr, reaction started by adding Substrate Mix
T2 construct: made in house; host or cells: baculovirus expression system
T2 sequence (P04626 23-1255): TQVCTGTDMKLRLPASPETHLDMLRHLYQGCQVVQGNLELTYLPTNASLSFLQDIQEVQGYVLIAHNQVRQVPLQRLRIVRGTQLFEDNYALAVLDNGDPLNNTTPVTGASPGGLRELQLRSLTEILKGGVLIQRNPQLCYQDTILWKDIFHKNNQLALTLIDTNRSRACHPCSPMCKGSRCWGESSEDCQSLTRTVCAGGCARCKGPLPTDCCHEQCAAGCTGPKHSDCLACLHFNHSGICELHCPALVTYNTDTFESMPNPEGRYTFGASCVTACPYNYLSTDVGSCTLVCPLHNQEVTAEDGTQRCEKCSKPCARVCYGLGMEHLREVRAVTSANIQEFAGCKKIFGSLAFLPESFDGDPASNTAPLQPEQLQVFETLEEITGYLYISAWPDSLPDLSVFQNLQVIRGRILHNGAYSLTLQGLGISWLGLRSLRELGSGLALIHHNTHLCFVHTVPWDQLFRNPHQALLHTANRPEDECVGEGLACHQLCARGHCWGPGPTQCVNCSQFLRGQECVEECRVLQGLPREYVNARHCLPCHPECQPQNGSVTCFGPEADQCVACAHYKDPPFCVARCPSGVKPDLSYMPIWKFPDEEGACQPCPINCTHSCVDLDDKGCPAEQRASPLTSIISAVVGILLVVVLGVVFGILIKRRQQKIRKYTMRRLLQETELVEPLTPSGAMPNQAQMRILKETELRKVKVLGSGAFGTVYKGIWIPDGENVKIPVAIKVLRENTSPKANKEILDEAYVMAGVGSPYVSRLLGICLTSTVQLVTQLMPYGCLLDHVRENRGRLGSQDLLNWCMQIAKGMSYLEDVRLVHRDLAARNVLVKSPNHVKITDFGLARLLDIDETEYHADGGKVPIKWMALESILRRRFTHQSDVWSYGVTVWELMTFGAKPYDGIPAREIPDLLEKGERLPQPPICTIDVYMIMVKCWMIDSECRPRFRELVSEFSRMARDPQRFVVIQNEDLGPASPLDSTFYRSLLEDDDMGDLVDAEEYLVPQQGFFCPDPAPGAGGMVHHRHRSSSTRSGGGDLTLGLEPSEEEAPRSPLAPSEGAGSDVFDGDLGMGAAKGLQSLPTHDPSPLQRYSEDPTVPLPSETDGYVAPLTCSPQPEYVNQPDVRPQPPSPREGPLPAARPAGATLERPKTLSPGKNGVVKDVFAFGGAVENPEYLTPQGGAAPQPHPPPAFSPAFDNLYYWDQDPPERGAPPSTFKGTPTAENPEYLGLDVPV
In short: as §1

[3] = system: HN5 tumor cells; test: Method C: Cell Growth Inhibition Assay (CellTiter-Glo), HN5; type: cell-based; conditions: Homo sapiens, 72 h, 3 days, 4-parameter fit
Procedure: (§2) Human breast tumor cells (BT474) were cultured in RPMI (Mediatech 50-011-PB), containing 10% FBS (JRH Biosciences 12176) and 1% penicillin-streptomycin (Invitrogen 15140). Human head and neck tumor cells (HN5) were cultured in high glucose DMEM (Mediatech 50-013-PB) containing 10% FBS and 1% penicillin-streptomycin. Human colon tumor cells (Colo205) were cultured in RPMI (Mediatech 50-020-PB) containing 10% FBS and 1% penicillin-streptomycin. Human melanoma cancer cells (SK-MEL-28) were cultured in EMEM with nonessential amino acids (Mediatech 50-011-PB) containing 10% FBS, 1% sodium pyruvate (JT Baker 3354-04), and 1% penicillin-streptomycin. Human melanoma cancer cells (A375P F11s) were cultured in RPMI (Mediatech 50-020-PB) containing 10% FBS, 1% sodium pyruvate, and 1% penicillin-streptomycin. Human colon cancer cells (HT-29) were cultured in high glucose DMEM (Mediatech 50-013-PB) containing 10% FBS and 1% penicillin-streptomycin. Human melanoma cancer cells (SK-MEL-3) were cultured in McCoy's 5A (50-025-PB) containing 15% FBS, and 1% penicillin-streptomycin. All cell lines were maintained at 37° C. in a humidified 5% CO2, 95% air incubator. Cells were harvested using trypsin/EDTA (Invitrogen 25200), counted using an haemocytometer, and plated. For 96-well assays (using white full-area NUNC plates cat. #136102), cells were plated in 105 μL at the following densities (cells/well): HN5, 500; Colo205, 500; SK-MEL-28, 500; A375P-F11s, 500; HT-29, 500; SK-MEL-3, 500; and BT474, 3000. For 384-well assays (white full-area NUNC plates, cat. #781080), cells were plated in 48 μL at the following densities (cells/well): HN5, 500; Colo205, 500; SK-MEL-28, 500; A375P-F11s, 500; HT29, 500; SK-MEL-3, 500; and BT474, 2000.
(§3) The next day, compounds were diluted as follow: For 96-well assays, 13.5 μL of compound in DMSO were diluted using nine (9) serial 1:3 dilutions of 4.5 μL in 9 μL of DMSO. Medium (270 μl/well of RPMI with 10% FBS and 1% penicillin-streptomycin) was added to the plates. Aliquots (7 μl) were added to cells in the final assay giving a final DMSO concentration of 0.2%. For 384-well assays, 15 μL of compound in DMSO were diluted using nine (9) serial 1:3 dilutions of 5 μL in 10 μL of DMSO, followed by a further dilution of 5 μL of compound with 95 μL of medium, of which 2 μL were added to cells in the final assay giving a final DMSO concentration of 0.2%. Cells were incubated at 37° C., 5% CO2 for 3 days.
(§4) Total ATP was measured (as a surrogate estimate of cell number) using CellTiter-Glo® reagent (Promega G7571). Briefly, plates were removed from the incubator and allowed to equilibrate to room temperature for 30 minutes. CellTiter-Glo® (25 μL or 55 μL for 384-well or 96-well assays, respectively) reagent was added to each well and plates were shaken on an orbital plate shaker for 2 mins. Plates were incubated without shaking for a further 30 mins and read on an LJL Analyst GT reader in luminometer mode with an integration time of 0.5 seconds per well. Percent inhibition of cell growth was calculated relative to DMSO vehicle-treated control wells. Concentration of compound required to give 50% inhibition of vehicle-treated control cell growth (IC50) was interpolated using a 4-parameter fit for determining IC50 using the following equation: Y=A+((B−A)/(1+((C/X)̂D))) where X=IC50.

[4] = system: BT474 tumor cells; test: Method C: Cell Growth Inhibition Assay (CellTiter-Glo), BT474; type: cell-based; conditions: Homo sapiens, BT-474, 72 h, 3 days, 4-parameter fit
[5] = system: Colo205 tumor cells; test: Method C: Cell Growth Inhibition Assay (CellTiter-Glo), Colo205; type: cell-based; conditions: Homo sapiens, COLO 205, 72 h, 3 days, 4-parameter fit
In short: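 Luminescent ATP signal (CellTiter-Glo, after 30 min room-temperature equilibration) served as a surrogate for cell number after a 3-day compound exposure at 37° C. Cells were plated at 500/well and treated with serially diluted compound at 0.2% DMSO. IC50 values are 4-parameter fits against DMSO-treated wells.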

[6] = system: SK-MEL-28 tumor cells; test: Method C: Cell Growth Inhibition Assay (CellTiter-Glo), SK-MEL-28; type: cell-based; conditions: Homo sapiens, SK-MEL-28, 72 h, 3 days, 4-parameter fit
In short: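 Cells were seeded at 500 per well and dosed the next day with nine serial 1:3 compound dilutions (0.2% DMSO final), then grown 3 days at 37° C, 5% CO2. ATP was measured by CellTiter-Glo luminescence, and IC50 was interpolated by 4-parameter fit of percent inhibition versus DMSO controls.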

[7] = system: A375P F11s tumor cells; test: Method C: Cell Growth Inhibition Assay (CellTiter-Glo), A375P F11s; type: cell-based; conditions: Homo sapiens, 72 h, 3 days, 4-parameter fit
Procedure: as §2, §3, §4

[8] = system: HT-29 tumor cells; test: Method C: Cell Growth Inhibition Assay (CellTiter-Glo), HT-29; type: cell-based; conditions: Homo sapiens, HT-29, 72 h, 3 days, 4-parameter fit
Procedure: as §2, §3, §4

[9] = system: SK-MEL-3 tumor cells; test: Method C: Cell Growth Inhibition Assay (CellTiter-Glo), SK-MEL-3; type: cell-based; conditions: Homo sapiens, SK-MEL3, 72 h, 3 days, 4-parameter fit
Procedure: as §2, §3, §4

| Compound | IC50 [1] | IC50 [2] | IC50 [3] | IC50 [4] | IC50 [5] | IC50 [6] | IC50 [7] | IC50 [8] | IC50 [9] |
| --- | --- | --- | --- | --- | --- | --- | --- | --- | --- |
| CN(C)CCOc1ccc(Nc2nccc(-c3sc(NCCCN4CCOCC4)nc3-c3cccc(NC(=O)c4c(F)cccc4F)c3)n2)cc1Cl [Example 4, N-[3-(5-{2-[(3-Chloro-4-{[2-(dimethylamino)ethyl]oxy}phenyl)-amino]-4-pyrimidinyl}-2-{[3-(4-morpholinyl)propyl]amino}-1,3-thiazol-44)phenyl]-2,6-difluorobenzamide] | < 100 nM | < 100 nM | 100 to 1000 nM | 100 to 1000 nM | 100 to 1000 nM | 100 to 1000 nM | 100 to 1000 nM | 100 to 1000 nM | 100 to 1000 nM |
| CN(C)CCOc1ccc(Nc2nccc(-c3sc(N)nc3-c3ccc(F)c(NC(=O)c4c(F)cccc4F)c3)n2)cc1Cl [Example 67] | < 100 nM | < 100 nM | < 100 nM | < 100 nM | < 100 nM | 100 to 1000 nM | 100 to 1000 nM | 100 to 1000 nM | 100 to 1000 nM |
| CN(C)CCOc1ccc(Nc2nccc(-c3sc(N)nc3-c3cccc(NC(=O)c4cc(F)ccc4F)c3)n2)cc1Cl [Example 56] | < 100 nM | < 100 nM | < 100 nM | < 100 nM | 100 to 1000 nM | > 1000 nM | 100 to 1000 nM | 100 to 1000 nM | > 1000 nM |
| COc1ccc(Nc2nccc(-c3sc(N)nc3-c3cccc(NC(=O)c4c(F)cccc4F)c3)n2)cc1N1CCN(C)CC1 [Example 11, N-{3-[2-Amino-5-(2-{[4-(methyloxy)-3-(4-methyl-1-piperazinyl)phenyl]amino}-4-pyrimidinyl)-1,3-thiazol-4-yl]phenyl}-2,6-difluorobenzamide trifluoroacetate] | < 100 nM | < 100 nM | < 100 nM | < 100 nM | 100 to 1000 nM | < 100 nM | 100 to 1000 nM | 100 to 1000 nM | 100 to 1000 nM |
| CN(C)CCOc1ccc(Nc2nccc(-c3sc(N(C)C)nc3-c3cccc(NC(=O)c4c(F)cccc4F)c3)n2)cc1Cl [Example 37, N-{3-[5-{2-[(3-Chloro-4-{[2-(dimethylamino)ethyl]oxy}phenyl)amino]-4-pyrimidinyl}-2-(dimethylamino)-1,3-thiazol-4-yl]phenyl}-2,6-difluorobenzamide] | < 100 nM | < 100 nM | 100 to 1000 nM | 100 to 1000 nM | 100 to 1000 nM | 100 to 1000 nM | 100 to 1000 nM | 100 to 1000 nM | > 1000 nM |
| CCc1nc(-c2cccc(NC(=O)c3c(F)cccc3F)c2)c(-c2ccnc(Nc3ccc(N4CCOCC4)nc3)n2)s1 [Example 118, N-{3-[2-Ethyl-5-(2-{[6-(4-morpholinyl)-3-pyridinyl]amino}-4-pyrimidinyl)-1,3-thiazol-4-yl]phenyl}-2,6-difluorobenzamide trifluoroacetate] |  |  | 100 to 1000 nM | 100 to 1000 nM | > 1000 nM | > 1000 nM | > 1000 nM | > 1000 nM | > 1000 nM |
| CN(C)CCOc1cccc(Nc2nccc(-c3sc(N4CCCCC4)nc3-c3cccc(NC(=O)c4c(F)cccc4F)c3)n2)c1 [Example 74, N-{3-[5-{2-[(3-{[2-(Dimethylamino)ethyl]oxy}phenyl)amino]-4-pyrimidinyl}-2-(1-piperidinyl)-1,3-thiazol-4-yl]phenyl}-2,6-difluorobenzamide] | < 100 nM | < 100 nM |  | 100 to 1000 nM | 100 to 1000 nM | > 1000 nM | 100 to 1000 nM | 100 to 1000 nM | > 1000 nM |
| CN(C)CCOc1cccc(Nc2nccc(-c3sc(NCCCN4CCOCC4)nc3-c3cccc(NC(=O)c4c(F)cccc4F)c3)n2)c1 [Example 29, N-[3-(5-{2-[(3-{[2-(Dimethylamino)ethyl]oxy}phenyl)amino]-4-pyrimidinyl}-2-{[3-(4-morpholinyl)propyl]amino}-1,3-thiazol-4-yl)phenyl]-2,6-difluorobenzamide] | < 100 nM | < 100 nM | < 100 nM | < 100 nM | 100 to 1000 nM | > 1000 nM |  |  |  |
